# Test results from patent US7754896B2, “Indol-alanine derivatives as selective S1P4-agonists” (Novartis AG, priority 2004, dated 2010).
# Molecular target: T1, S1P1 (Homo sapiens, UniProt P21453)
# T1 construct: expressed in transfected cells
# Test: GTPγS binding assay, S1P1
# Format: biochemical
# Conditions: CHO cells expressing S1P1
# From the text: Human S1P1 (GenBank™ accession number M31210) and S1P3 (GenBank™ accession number X83864) cDNA containing the myc sequence in front to the human S1P1 and S1P3 sequences are inserted in the pcDNA 3.1 vector. The vectors are sequenced to completion to confirm the correctness of the construct. The human S1P2 (GI: 4090955, TREMBL: 0195136) is cloned by a PCR based method. Lung cDNA (marathon cDNA) is obtained (BD Biosciences Chontech, Palo Alto, Calif. 94303, USA). Following oligonucleotides are used for the PCR reaction: forward primer CACCATGGGCAGCTTGTACTCGGAGTACCT GM CCC CAA CM GGT CCA G (1 to 45, GenBank™ accession number AF034780) and reverse primer 5′-GATTCAGACCACCGTGTTGCCCTCCAG (1062 to 1039, GenBank™ accession number AF034780), the initiation of the translation (ATG) and the stop codon are underlined. […] The amplified product of around 1100 bp is analyzed by standard agarose gel-electrophoresis. […]
# Membrane proteins are prepared from wild type CHO-K1 and the CHO cell clones expressing human S1P4. […] The protein concentration is determined using the Bio Rad Protein Assay and human IgG as standard. […]
# T1 sequence (P21453 whole entry): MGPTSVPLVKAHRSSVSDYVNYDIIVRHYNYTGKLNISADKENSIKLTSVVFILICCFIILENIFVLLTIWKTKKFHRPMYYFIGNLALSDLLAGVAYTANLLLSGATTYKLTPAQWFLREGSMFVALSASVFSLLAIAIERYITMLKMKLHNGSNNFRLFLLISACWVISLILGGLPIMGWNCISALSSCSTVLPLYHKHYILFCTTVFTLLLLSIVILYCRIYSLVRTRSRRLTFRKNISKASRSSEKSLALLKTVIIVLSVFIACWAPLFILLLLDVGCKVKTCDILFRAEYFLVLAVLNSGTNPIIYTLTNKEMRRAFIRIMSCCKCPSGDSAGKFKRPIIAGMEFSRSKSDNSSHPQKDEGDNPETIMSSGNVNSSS
compound,measurement,value
NC(CNC(=O)c1cc2c(-c3ccccc3Cc3ccccc3)cccc2[nH]1)C(=O)O (stereo not shown) [Example 2],EC50,> 10 µM
